Data published in ChEMBL document CHEMBL5096194, “Development of Alectinib-Based PROTACs as Novel Potent Degraders of Anaplastic Lymphoma Kinase (ALK)” (J Med Chem, 2021).
Calls of active or inactive are those of the source. The rule behind the calls is not given here.

Assays:
[1] = Toxicity in NCG mouse xenografted with human KARPAS-299 cells assessed as lung damage at 10 mg/kg, iv administered once every day for 3 weeks by H and E staining based analysis; type: organism-based; conditions: in vivo, 504 h
[2] = Tmax in Sprague-Dawley rat at 50 mg/kg, ip administered as single dose measured for 24 hrs by LC-MS/MS analysis; type: ADME, organism-based; conditions: in vivo
BaF3 [3] = test: Antiproliferative activity against crizotinib-resistant mouse BaF3 cells expressing EML-ALK G1202R mutant assessed as cell viability at 1 uM incubated for 72 hrs by Celltitre-Glo assay relative to control; type: functional; conditions: read-out: Activity
[4] = Tmax in Sprague-Dawley rat at 1 mg/kg, iv administered as single dose measured for 24 hrs by LC-MS/MS analysis; type: ADME, organism-based; conditions: in vivo
[5] = biological target: T1, ALK tyrosine kinase receptor (Homo sapiens, UniProt Q9UM73); test: Inhibition of ALK phosphorylation in human KARPAS-299 cells at 100 nM measured after 48 hrs by Western blot analysis; type: cell-based
Target sequence in this assay (Q9UM73 19-1620 limits assumed): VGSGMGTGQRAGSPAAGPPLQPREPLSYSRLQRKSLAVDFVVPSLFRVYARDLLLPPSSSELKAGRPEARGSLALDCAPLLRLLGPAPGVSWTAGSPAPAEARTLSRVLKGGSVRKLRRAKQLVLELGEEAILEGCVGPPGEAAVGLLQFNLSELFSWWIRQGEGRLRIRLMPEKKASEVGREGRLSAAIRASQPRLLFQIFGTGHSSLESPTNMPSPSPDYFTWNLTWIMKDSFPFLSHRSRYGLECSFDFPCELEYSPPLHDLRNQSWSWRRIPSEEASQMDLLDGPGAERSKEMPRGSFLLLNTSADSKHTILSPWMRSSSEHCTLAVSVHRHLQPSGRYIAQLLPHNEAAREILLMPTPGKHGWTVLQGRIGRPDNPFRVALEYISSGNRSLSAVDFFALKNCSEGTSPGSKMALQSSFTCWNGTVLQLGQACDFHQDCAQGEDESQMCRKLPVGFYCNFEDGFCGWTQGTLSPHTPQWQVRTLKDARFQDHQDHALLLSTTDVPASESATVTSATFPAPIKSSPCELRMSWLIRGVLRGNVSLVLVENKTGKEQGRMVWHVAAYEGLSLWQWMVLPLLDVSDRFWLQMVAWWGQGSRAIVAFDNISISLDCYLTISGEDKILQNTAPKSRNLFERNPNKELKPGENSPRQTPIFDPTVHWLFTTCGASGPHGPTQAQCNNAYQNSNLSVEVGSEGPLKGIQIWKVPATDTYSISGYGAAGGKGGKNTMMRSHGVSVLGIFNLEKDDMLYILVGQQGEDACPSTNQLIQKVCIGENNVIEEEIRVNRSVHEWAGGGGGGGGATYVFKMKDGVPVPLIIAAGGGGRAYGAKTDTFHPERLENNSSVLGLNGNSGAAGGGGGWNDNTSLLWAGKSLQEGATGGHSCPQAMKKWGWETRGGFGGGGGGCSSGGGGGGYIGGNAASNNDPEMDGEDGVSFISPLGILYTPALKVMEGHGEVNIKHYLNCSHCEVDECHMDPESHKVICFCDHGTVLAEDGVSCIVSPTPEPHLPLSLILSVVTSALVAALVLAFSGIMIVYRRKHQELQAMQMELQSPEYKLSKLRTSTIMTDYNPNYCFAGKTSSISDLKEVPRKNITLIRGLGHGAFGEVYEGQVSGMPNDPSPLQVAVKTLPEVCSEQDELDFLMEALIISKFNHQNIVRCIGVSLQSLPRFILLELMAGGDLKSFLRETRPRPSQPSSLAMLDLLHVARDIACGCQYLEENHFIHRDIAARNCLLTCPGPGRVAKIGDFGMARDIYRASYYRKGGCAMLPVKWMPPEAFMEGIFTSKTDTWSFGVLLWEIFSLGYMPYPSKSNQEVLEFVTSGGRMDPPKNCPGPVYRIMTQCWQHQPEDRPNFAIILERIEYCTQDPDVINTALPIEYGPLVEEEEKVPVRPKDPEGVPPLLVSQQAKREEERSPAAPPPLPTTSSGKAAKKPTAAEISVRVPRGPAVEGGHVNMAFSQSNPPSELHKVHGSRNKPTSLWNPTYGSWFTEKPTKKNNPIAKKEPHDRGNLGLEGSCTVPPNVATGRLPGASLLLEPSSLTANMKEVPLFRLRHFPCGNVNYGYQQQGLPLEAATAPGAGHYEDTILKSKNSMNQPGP

[6] = biological target: Protein cereblon/ALK tyrosine kinase receptor/Echinoderm microtubule-associated protein-like 4 (Homo sapiens, UniProt Q96SW2+Q9HC35+Q9UM73); test: Protac activity at CRBN/EML4-ALK in human NCI-H3122 cells assessed as induction of EML4-ALK fusion protein degradation incubated for 16 hrs by Western blot analysis; type: cell-based
NCI-H3122 = test: Antiproliferative activity against ALK-positive human NCI-H3122 cells assessed as inhibition of cell proliferation measured after 72 hrs by MTT assay; type: functional, cell-based; conditions: NCI-H3122, 72 h
[7] = Volume of distribution in Sprague-Dawley rat at 50 mg/kg, ip administered as single dose measured for 24 hrs by LC-MS/MS analysis; type: ADME, organism-based; conditions: in vivo
[8] = biological target: T1, ALK tyrosine kinase receptor
[9] = Toxicity in NCG mouse xenografted with human KARPAS-299 cells assessed as heart damage at 10 mg/kg, iv administered once every day for 3 weeks by H & E staining based analysis; type: organism-based; conditions: in vivo, 504 h
KARPAS-299 [10] = test: Downregulation of SESN2 protein expression in human KARPAS-299 cells at 1 uM incubated for 24 hrs by iTRAQ proteomics analysis; type: functional, cell-based
KARPAS-299 [11] = test: Downregulation of ALK protein expression in human KARPAS-299 cells at 1 uM incubated for 24 hrs by iTRAQ proteomics analysis; type: functional, cell-based
[12] = biological target: T2, Protein cereblon/ALK tyrosine kinase receptor/Nucleophosmin (Homo sapiens) (UniProt Q9UM73+P06748+Q96SW2); test: Protac activity at CRBN/NPM-ALK in human KARPAS-299 cells assessed as induction of NPM-ALK fusion protein degradation at 1 uM incubated for 24 hrs by Western blot analysis relative to control; type: cell-based
[13] = Toxicity in NCG mouse xenografted with human KARPAS-299 cells assessed as kidney damage at 10 mg/kg, iv administered once every day for 3 weeks by H and E staining based analysis; type: organism-based; conditions: in vivo, 504 h
[14] = Observed oral clearance in Sprague-Dawley rat at 50 mg/kg, ip administered as single dose measured for 24 hrs by LC-MS/MS analysis; type: ADME, organism-based; conditions: in vivo
[15] = biological target: T2, Protein cereblon/ALK tyrosine kinase receptor/Nucleophosmin (Homo sapiens); test: Protac activity at CRBN/NPM-ALK in human KARPAS-299 cells assessed as induction of NPM-ALK fusion protein degradation at 0.1 uM incubated for 24 hrs by Western blot analysis relative to control; type: cell-based
BaF3 [16] = test: Antiproliferative activity against mouse BaF3 cells expressing wild type EML-ALK assessed as cell viability at 1 uM incubated for 72 hrs by Celltitre-Glo assay relative to control; type: functional; conditions: read-out: Activity
KARPAS-299 [17] = test: Downregulation of SOCS3 protein expression in human KARPAS-299 cells at 1 uM incubated for 24 hrs by iTRAQ proteomics analysis; type: functional, cell-based
[18] = Toxicity in NCG mouse xenografted with human KARPAS-299 cells assessed as body weight loss at 10 mg/kg, iv administered once every day for 3 weeks; type: organism-based; conditions: in vivo, 504 h
[19] = biological target: T1, ALK tyrosine kinase receptor; test: Inhibition of ALK phosphorylation in human KARPAS-299 cells at 1 uM incubated for 24 hrs followed by compound washout and measured after 72 hrs by Western blot analysis; type: cell-based
Target sequence in this assay (Q9UM73 19-1620 limits assumed): as above

[20] = biological target: T2, Protein cereblon/ALK tyrosine kinase receptor/Nucleophosmin (Homo sapiens); test: Protac activity at CRBN/NPM-ALK in human KARPAS-299 cells assessed as induction of NPM-ALK fusion protein degradation at 1 uM incubated for 24 hrs followed by compound washout and measured after 24 hrs by Western blot analysis; type: cell-based
[21] = Cmax in Sprague-Dawley rat at 50 mg/kg, ip administered as single dose measured for 24 hrs by LC-MS/MS analysis; type: ADME, organism-based; parameters: dose 50 mg/kg, time 24 hrs, route ip; conditions: in vivo
[22] = Half life in Sprague-Dawley rat at 1 mg/kg, iv administered as single dose measured for 24 hrs by LC-MS/MS analysis; type: ADME, organism-based; conditions: in vivo
[23] = Toxicity in NCG mouse xenografted with human KARPAS-299 cells assessed as liver damage at 10 mg/kg, iv administered once every day for 3 weeks by H and E staining based analysis; type: organism-based; conditions: in vivo, 504 h
[24] = biological target: T2, Protein cereblon/ALK tyrosine kinase receptor/Nucleophosmin (Homo sapiens); test: Protac activity at CRBN/NPM-ALK in human KARPAS-299 cells assessed as induction of NPM-ALK fusion protein degradation at 2 uM incubated for 24 hrs by Western blot analysis; type: cell-based

T2 sequence (P06748 whole entry partner, the tested form may be a part): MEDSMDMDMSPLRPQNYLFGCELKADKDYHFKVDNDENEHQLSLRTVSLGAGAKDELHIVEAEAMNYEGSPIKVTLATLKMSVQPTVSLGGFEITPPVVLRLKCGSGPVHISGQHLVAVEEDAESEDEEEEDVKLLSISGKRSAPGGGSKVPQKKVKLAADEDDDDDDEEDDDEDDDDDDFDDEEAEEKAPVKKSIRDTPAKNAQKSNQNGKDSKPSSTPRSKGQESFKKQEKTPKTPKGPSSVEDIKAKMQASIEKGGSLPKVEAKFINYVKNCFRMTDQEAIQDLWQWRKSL
T2 sequence (Q96SW2 whole entry partner, the tested form may be a part): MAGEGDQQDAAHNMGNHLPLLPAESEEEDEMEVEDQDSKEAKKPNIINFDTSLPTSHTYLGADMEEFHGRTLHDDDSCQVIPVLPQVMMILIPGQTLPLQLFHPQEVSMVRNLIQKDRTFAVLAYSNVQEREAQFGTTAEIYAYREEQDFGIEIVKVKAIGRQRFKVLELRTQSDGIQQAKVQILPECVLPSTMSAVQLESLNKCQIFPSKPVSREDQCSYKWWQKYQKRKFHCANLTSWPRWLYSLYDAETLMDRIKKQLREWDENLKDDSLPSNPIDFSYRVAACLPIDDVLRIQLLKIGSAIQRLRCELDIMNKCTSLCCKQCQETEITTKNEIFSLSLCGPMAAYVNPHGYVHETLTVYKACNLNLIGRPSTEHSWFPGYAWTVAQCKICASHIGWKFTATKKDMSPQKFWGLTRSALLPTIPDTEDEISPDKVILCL
T2 sequence (Q9UM73 19-1620 limits assumed): as the sequence (Q9UM73 19-1620 limits assumed) above

CCc1cc2c(cc1N1CCN(C(=O)CNc3cccc4c3C(=O)N(C3CCC(=O)NC3=O)C4=O)CC1)C(C)(C)c1[nH]c3cc(C#N)ccc3c1C2=O (stereo not given)
Activity [1]: Non-Toxic
Tmax [2]: 15 min
viability at 1 µM (BaF3 [3]): 77.6%
Tmax [4]: 1.8 min
inhibition [5]: Active
EC50 [6]: 27.4 nM
IC50 (NCI-H3122): 62 nM
Vd [7]: 1685.67 L/kg
IC50 [8]: 13600 nM
Activity [9]: Non-Toxic
Activity (KARPAS-299 [10]): Active
Activity (KARPAS-299 [11]): Active
Activity [12]: 85%
Activity [13]: Non-Toxic
CL/F [14]: 743 mL/min/kg
Activity [15]: 8.6%
viability at 1 µM (BaF3 [16]): 0.1%
Activity (KARPAS-299 [17]): Active
Activity [18]: Non-Toxic
inhibition [19]: Active
Activity [20]: Active
Cmax [21]: 109 ng/mL
half-life [22]: 25.2 min
Activity [23]: Non-Toxic
Activity [24]: Active
